Experiments:
Type in all cases: biochemical
CDK9 = CDK9 (Homo sapiens (Human), UniProt P50750); test: Invitrogen kinase assay, inhibition of CDK9; conditions: co-factor cyclin T1; read-out: IC50 against CDK9
Method: (§1) Compounds of the disclosure were assayed using Invitrogen CDK7 assay against a variety of kinases. Exemplary results are presented as IC50 values (see Table 1 and Table 2). The co-factors used for each kinase in the assays were as follows: CDK7: cyclin H and MNAT1; CDK2: cyclin A; CDK9: cyclin T1.

CDK7 = CDK7 (Homo sapiens (Human), UniProt P50613); test: Invitrogen CDK7 assay, inhibition of CDK7; conditions: co-factors cyclin H and MNAT1; read-out: IC50 against CDK7
Chain of CDK7 (P50613 whole entry): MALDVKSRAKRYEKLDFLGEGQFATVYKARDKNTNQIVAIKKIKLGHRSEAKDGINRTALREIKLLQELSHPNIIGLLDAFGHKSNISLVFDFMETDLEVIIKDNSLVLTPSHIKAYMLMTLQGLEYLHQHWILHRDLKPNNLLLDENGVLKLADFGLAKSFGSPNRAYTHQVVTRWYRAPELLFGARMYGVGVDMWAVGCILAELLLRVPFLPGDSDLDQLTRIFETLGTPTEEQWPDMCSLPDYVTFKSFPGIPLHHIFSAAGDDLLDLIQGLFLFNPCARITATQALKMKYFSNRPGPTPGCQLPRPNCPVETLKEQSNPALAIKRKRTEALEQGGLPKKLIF
Chain of CDK7 (P51946 whole entry partner): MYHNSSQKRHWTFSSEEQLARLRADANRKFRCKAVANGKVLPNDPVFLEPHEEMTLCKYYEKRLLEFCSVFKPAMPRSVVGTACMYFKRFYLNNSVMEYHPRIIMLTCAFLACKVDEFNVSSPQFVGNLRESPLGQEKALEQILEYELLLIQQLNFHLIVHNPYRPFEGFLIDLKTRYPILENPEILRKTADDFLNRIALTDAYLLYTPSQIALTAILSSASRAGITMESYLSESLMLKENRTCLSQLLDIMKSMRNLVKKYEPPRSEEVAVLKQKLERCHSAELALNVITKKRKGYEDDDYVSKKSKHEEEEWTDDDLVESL
Chain of CDK7 (P51948 whole entry partner): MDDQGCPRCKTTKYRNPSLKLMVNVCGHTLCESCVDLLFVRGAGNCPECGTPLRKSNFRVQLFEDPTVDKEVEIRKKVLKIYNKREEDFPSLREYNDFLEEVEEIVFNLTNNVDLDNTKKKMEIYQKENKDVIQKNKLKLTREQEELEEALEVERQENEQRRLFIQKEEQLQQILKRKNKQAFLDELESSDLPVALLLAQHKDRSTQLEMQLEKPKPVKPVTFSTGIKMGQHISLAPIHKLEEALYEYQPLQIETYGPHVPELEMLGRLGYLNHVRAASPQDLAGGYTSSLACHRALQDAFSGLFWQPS
Method: as §1

CDK2 = CDK2 (Homo sapiens (Human), UniProt P24941); test: Invitrogen kinase assay, inhibition of CDK2; conditions: co-factor cyclin A; read-out: IC50 against CDK2
Method: as §1

Chain of CDK9 (P50750 whole entry): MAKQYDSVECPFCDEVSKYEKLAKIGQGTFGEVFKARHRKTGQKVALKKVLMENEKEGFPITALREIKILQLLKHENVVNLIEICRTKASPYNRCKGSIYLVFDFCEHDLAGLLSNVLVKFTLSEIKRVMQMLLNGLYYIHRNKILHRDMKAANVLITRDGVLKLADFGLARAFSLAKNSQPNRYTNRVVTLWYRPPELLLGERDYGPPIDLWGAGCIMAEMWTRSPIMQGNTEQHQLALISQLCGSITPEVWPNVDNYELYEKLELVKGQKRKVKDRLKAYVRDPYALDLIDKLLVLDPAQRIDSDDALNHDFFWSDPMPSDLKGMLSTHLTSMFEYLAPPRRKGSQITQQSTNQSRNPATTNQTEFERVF
Chain of CDK9 (O60563 whole entry partner): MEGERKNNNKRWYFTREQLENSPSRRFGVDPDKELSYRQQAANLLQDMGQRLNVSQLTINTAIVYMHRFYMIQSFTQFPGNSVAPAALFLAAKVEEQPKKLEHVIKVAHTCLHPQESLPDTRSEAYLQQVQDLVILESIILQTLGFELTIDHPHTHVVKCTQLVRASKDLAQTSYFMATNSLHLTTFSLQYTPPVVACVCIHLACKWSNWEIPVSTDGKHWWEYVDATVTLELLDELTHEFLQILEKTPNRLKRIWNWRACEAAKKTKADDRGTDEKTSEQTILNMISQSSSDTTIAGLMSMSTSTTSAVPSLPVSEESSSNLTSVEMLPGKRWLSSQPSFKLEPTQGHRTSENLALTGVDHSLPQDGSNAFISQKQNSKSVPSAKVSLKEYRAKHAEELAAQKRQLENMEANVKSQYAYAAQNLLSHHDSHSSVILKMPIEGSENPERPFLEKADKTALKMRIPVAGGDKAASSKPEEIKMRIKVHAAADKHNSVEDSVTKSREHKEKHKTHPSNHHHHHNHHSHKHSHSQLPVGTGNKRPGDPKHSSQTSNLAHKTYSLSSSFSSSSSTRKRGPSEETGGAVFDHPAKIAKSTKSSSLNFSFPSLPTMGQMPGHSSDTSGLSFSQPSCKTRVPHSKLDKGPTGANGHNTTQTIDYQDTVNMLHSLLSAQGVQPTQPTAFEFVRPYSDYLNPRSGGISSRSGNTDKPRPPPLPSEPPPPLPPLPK

SMILES | IC50 (CDK9) | IC50 (CDK7) | IC50 (CDK2)
C=CC(=O)Nc1ccc(C(=O)Nc2n[nH]c3c2CN(C(=O)NC2(CN(C)C)CC2)C3(C)C)cc1 [Compound 065, 3-(4-acrylamidobenzamido)-N-(1-((dimethylamino)methyl)cyclopropyl)-6,6-dimethyl-4,6-dihydropyrrolo[3,4-c]pyrazole-5(1H)carboxamide] | > 10000 nM | 61.1 nM | > 10000 nM
C=CC(=O)Nc1ccc(C(=O)Nc2n[nH]c3c2CN(C(=O)NC(CN(C)C)C2CCOC2)C3(C)C)cc1 (stereo not drawn) [Compound 079, 3-(4-acrylamidobenzamido)-N-(2-(dimethylamino)-1-(tetrahydrofuran-3-yl)ethyl)-6,6-dimethyl-4,6-dihydropyrrolo[3,4-c]pyrazole-5(1H)-carboxamide] | 1060 nM | 190 nM | > 10000 nM
Cc1nc(Nc2n[nH]c3c2CN(C(=O)N[C@H](CN(C)C)C2CCOCC2)C3(C)C)c2ccsc2n1 [Compound 200, (S)—N-(2-(dimethylamino)-1-(tetrahydro-2H-pyran-4-yl)ethyl)-6,6-dimethyl-3-((2-methylthieno[2,3-d]pyrimidin-4-yl)amino)-4,6-dihydropyrrolo[3,4-c]pyrazole-5(1H)-carboxamide] | > 10000 nM | 18.5 nM | > 10000 nM
Cc1nc(Nc2n[nH]c3c2CN(C(=O)N[C@H](CN(C)C)C2CCOCC2)C3(C)C)c2sccc2n1 [Compound 201, (S)—N-(2-(dimethylamino)-1-(tetrahydro-2H-pyran-4-yl)ethyl)-6,6-dimethyl-3-((2-methylthieno[3,2-d]pyrimidin-4-yl)amino)-4,6-dihydropyrrolo[3,4-c]pyrazole-5(1H)-carboxamide] | > 10000 nM | 39.1 nM | > 10000 nM
C=CC(=O)Nc1ccc2c(Nc3n[nH]c4c3CN(C(=O)N[C@H](CN(C)C)C3CCOCC3)C4(C)C)nccc2c1 [Compound 202, (S)-3-((6-acrylamidoisoquinolin-1-yl)amino)-N-(2-(dimethylamino)-1-(tetrahydro-2H-pyran-4-yl)ethyl)-6,6-dimethyl-4,6-dihydropyrrolo[3,4-c]pyrazole-5(1H)-carboxamide] | > 10000 nM | 69 nM | > 1110 nM
C=CC(=O)Nc1cccc2c(Nc3n[nH]c4c3CN(C(=O)N[C@H](CN(C)C)C3CCOCC3)C4(C)C)nccc12 [Compound 203, (S)-3-((5-acrylamidoisoquinolin-1-yl)amino)-N-(2-(dimethylamino)-1-(tetrahydro-2H-pyran-4-yl)ethyl)-6,6-dimethyl-4,6-dihydropyrrolo[3,4-c]pyrazole-5(1H)-carboxamide] | > 10000 nM | 214 nM | > 10000 nM
C=CC(=O)Nc1ccc(Nc2n[nH]c3c2CN(C(=O)N[C@H](CN(C)C)C2CCOCC2)C3(C)C)nc1 [Compound 204, (S)-3-((5-acrylamidopyridin-2-yl)amino)-N-(2-(dimethylamino)-1-(tetrahydro-2H-pyran-4-yl)ethyl)-6,6-dimethyl-4,6-dihydropyrrolo[3,4-c]pyrazole-5(1H)-carboxamide] | > 10000 nM | 407 nM | > 10000 nM
C=CC(=O)Nc1ccc(C(=O)Nc2n[nH]c3c2CN(C(=O)N[C@H](CN(C)C)C2CCOCC2)C3(C)C)cc1 [Compound 205, (S)-3-(4-acrylamidobenzamido)-N-(2-(dimethylamino)-1-(tetrahydro-2H-pyran-4-yl)ethyl)-6,6-dimethyl-4,6-dihydropyrrolo[3,4-c]pyrazole-5(1H)-carboxamide] | 4010 nM | 12.8 nM | > 370 nM
C=CC(=O)Nc1cnc(Nc2n[nH]c3c2CN(C(=O)N[C@H](CN(C)C)C2CCOCC2)C3(C)C)nc1 [Compound 206, (S)-3-((5-acrylamidopyrimidin-2-yl)amino)-N-(2-(dimethylamino)-1-(tetrahydro-2H-pyran-4-yl)ethyl)-6,6-dimethyl-4,6-dihydropyrrolo[3,4-c]pyrazole-5(1H)-carboxamide] | > 10000 nM | 732 nM | > 10000 nM
C=CC(=O)Nc1ccc(C(=O)Nc2n[nH]c3c2CN(C(=O)NC2CN(C)Cc4ccccc42)C3(C)C)cc1 (stereo not drawn) [Compound 207, 3-(4-acrylamidobenzamido)-6,6-dimethyl-N-(2-methyl-1,2,3,4-tetrahydroisoquinolin-4-yl)-4,6-dihydropyrrolo[3,4-c]pyrazole-5(1H)-carboxamide] | > 10000 nM | 15.4 nM | 3410 nM
CN(C)C[C@@H](NC(=O)N1Cc2c(Nc3ccnc(C(F)(F)F)n3)n[nH]c2C1(C)C)C1CCOCC1 [Compound 208, (S)—N-(2-(dimethylamino)-1-(tetrahydro-2H-pyran-4-yl)ethyl)-6,6-dimethyl-3-((2-(trifluoromethyl)pyrimidin-4-yl)amino)-4,6-dihydropyrrolo[3,4-c]pyrazole-5(1H)-carboxamide] | > 10000 nM | 10.8 nM | 4520 nM
C=CC(=O)Nc1ccc(Nc2n[nH]c3c2CN(C(=O)N[C@H](CN(C)C)C2CCOCC2)C3(C)C)cc1 [Compound 209, (S)-3-((4-acrylamidophenyl)amino)-N-(2-(dimethylamino)-1-(tetrahydro-2H-pyran-4-yl)ethyl)-6,6-dimethyl-4,6-dihydropyrrolo[3,4-c]pyrazole-5(1H)-carboxamide] | > 10000 nM | 3310 nM | > 10000 nM
C=CC(=O)Nc1ccc(C(=O)Nc2n[nH]c3c2CN(C(=O)N[C@H]2CCCN(C)C2)C3(C)C)cc1 [Compound 210, (S)-3-(4-acrylamidobenzamido)-6,6-dimethyl-N-(1-methylpiperidin-3-yl)-4,6-dihydropyrrolo[3,4-c]pyrazole-5(1H)-carboxamide] | 1740 nM | 48.4 nM | 161 nM

Reference: US12281126B2, “Inhibitors of cyclin-dependent kinase 7 and uses thereof” (Dana-Farber Cancer Institute, Inc., priority 2018, dated 2025)
